Laboratory results as given in ChEMBL document CHEMBL1201862, “PubChem BioAssay data set” (2004).
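Each compound was tested at five concentrations against cells in 96-well plates for 48 hours. GI50: concentration for 50% inhibition of growth.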 Activity calls are given as the source filed them. Cut-off read from the data, not from the text of the source: active = GI50 up to about 1.1 µM and inactive = higher.

Key:
Experiment in all cases: DTP human tumour cell line panel, 48 h
[1] = test system: SK-OV-3
[2] = test system: 786-0
[3] = test system: EKVX
[4] = test system: M14
[5] = test system: MCF7
[6] = test system: COLO 205
[7] = test system: UACC-257
[8] = test system: SK-MEL-2
[9] = test system: SK-MEL-28
[10] = test system: OVCAR-4
[11] = test system: PC-3
[12] = test system: SR
[13] = test system: SK-MEL-5
[14] = test system: NCI-H522
[15] = test system: NCI-H460
[16] = test system: HCC 2998
[17] = test system: HOP-62
[18] = test system: RPMI-8226
[19] = test system: HCT-15
[20] = test system: MDA-MB-231
[21] = test system: NCI/ADR-RES
[22] = test system: OVCAR-3
[23] = test system: UACC-62
[24] = test system: SF-539
[25] = test system: Malme-3M
[26] = test system: TK-10
[27] = test system: U-251
[28] = test system: HT-29
[29] = test system: SF-268
[30] = test system: Hs-578T
[31] = test system: HOP-92
[32] = test system: CCRF-CEM
[33] = test system: DU-145
[34] = test system: LOX IMVI
[35] = test system: A498
[36] = test system: SN12C
[37] = test system: CAKI-1
[38] = test system: BT-549
[39] = test system: MDA-N
[40] = test system: ACHN
[41] = test system: MOLT-4
[42] = test system: NCI-H23
[43] = test system: SF-295
[44] = test system: HCT-116
[45] = test system: T47D
[46] = test system: HL-60
[47] = test system: SW-620
[48] = test system: UO-31
[49] = test system: NCI-H226
[50] = test system: K562
[51] = test system: SNB-75
[52] = test system: A549
[53] = test system: MDA-MB-435
[54] = test system: OVCAR-5
[55] = test system: KM12
[56] = test system: IGROV-1
[57] = test system: SNB-19
[58] = test system: OVCAR-8
[59] = test system: RXF 393

Measured: GI50

COc1ccc(-c2nnc(CCCCCCCCc3nnc(-c4ccc(OC)cc4)n3N)n2N)cc1
> 100 µM: [19]
inactive: [1] > 56.2 µM | [2] > 31.6 µM | [3] > 100 µM | [4] > 100 µM | [5] > 100 µM | [6] > 100 µM | [7] > 100 µM | [8] > 81.5 µM | [9] > 100 µM | [10] > 100 µM | [11] > 100 µM | [12] > 100 µM | [13] > 100 µM | [14] > 56.5 µM | [15] > 100 µM | [16] > 100 µM | [17] 28.2 µM | [18] > 100 µM | [20] > 57.8 µM | [21] > 31.6 µM | [22] > 100 µM | [23] > 92 µM | [24] > 76.2 µM | [25] > 100 µM | [26] > 60 µM | [27] > 56.9 µM | [28] > 100 µM | [29] > 58.2 µM | [30] > 59 µM | [31] > 39.3 µM | [32] > 100 µM | [33] > 100 µM | [34] > 100 µM | [35] > 65.3 µM | [36] > 100 µM | [37] > 100 µM | [38] 58.5 µM | [39] > 100 µM | [40] > 100 µM | [41] > 100 µM | [42] > 100 µM | [43] > 59.4 µM | [44] > 66.1 µM | [45] > 100 µM | [46] > 100 µM | [47] > 100 µM | [48] > 100 µM | [49] > 100 µM | [50] > 100 µM | [51] 37.9 µM | [52] > 100 µM | [53] > 100 µM | [54] > 100 µM | [55] > 100 µM | [56] > 96.6 µM | [57] > 60.3 µM | [58] > 31.6 µM

Cc1cc(O)c(C(C)C)cc1/N=C/c1ccccc1O
active: [18] 0.278 µM | [31] 0.621 µM | [32] 0.0242 µM | [41] 0.301 µM | [45] 0.36 µM | [46] 0.303 µM
3.97 µM: [19]
inactive: [1] 15.2 µM | [2] 5.73 µM | [3] 7.87 µM | [4] 15.4 µM | [5] 7.26 µM | [6] 25.5 µM | [7] 9.35 µM | [8] 11 µM | [9] 15.1 µM | [10] 2.41 µM | [11] 5.08 µM | [12] 1.15 µM | [13] 6.08 µM | [14] 3.72 µM | [15] 5.3 µM | [16] 7.29 µM | [17] 11.7 µM | [20] 1.73 µM | [21] 3.12 µM | [22] 2.48 µM | [23] 8.91 µM | [24] 30.8 µM | [59] 1.34 µM | [25] 14.7 µM | [26] 13.1 µM | [27] 3.55 µM | [28] 24.2 µM | [29] 6.21 µM | [30] 8.73 µM | [33] 5.53 µM | [34] 3.13 µM | [35] 23.6 µM | [36] 4.54 µM | [37] 12.1 µM | [38] 8.3 µM | [39] 3.72 µM | [40] 11.5 µM | [42] 15.2 µM | [43] 13.1 µM | [44] 4 µM | [47] 1.98 µM | [48] 13.2 µM | [49] 5.52 µM | [50] 1.26 µM | [52] 18.5 µM | [53] 1.99 µM | [54] 20.6 µM | [55] 3.76 µM | [56] 8.43 µM | [57] 17.5 µM | [58] 1.8 µM

N=C(N)NS(=O)(=O)c1ccc(N/N=C2/CCOC2=O)cc1
> 100 µM: [19]
inactive: [1] 40.6 µM | [2] > 100 µM | [3] > 100 µM | [4] > 100 µM | [5] > 100 µM | [6] > 100 µM | [7] > 100 µM | [8] > 100 µM | [9] > 100 µM | [10] > 100 µM | [11] 80.4 µM | [12] 70.6 µM | [13] > 100 µM | [15] > 100 µM | [16] > 100 µM | [17] 26.6 µM | [18] > 100 µM | [20] > 100 µM | [21] > 100 µM | [22] > 100 µM | [23] > 100 µM | [24] > 100 µM | [59] > 100 µM | [25] > 100 µM | [26] > 100 µM | [27] 41.2 µM | [28] > 100 µM | [29] 45.1 µM | [30] 57.8 µM | [31] 63.2 µM | [32] > 100 µM | [33] > 100 µM | [34] > 100 µM | [35] > 100 µM | [36] 65.5 µM | [37] > 100 µM | [38] > 100 µM | [39] > 100 µM | [40] 63.5 µM | [41] 2.95 µM | [42] > 100 µM | [43] 49.7 µM | [44] > 100 µM | [45] 49.1 µM | [46] > 100 µM | [47] > 100 µM | [48] > 100 µM | [49] > 100 µM | [50] 45.3 µM | [51] 21.7 µM | [52] > 100 µM | [53] > 100 µM | [54] > 100 µM | [55] > 100 µM | [56] > 100 µM | [57] > 100 µM | [58] 49.5 µM

O=C1C=CC(=O)c2c1ccc1c3ccccc3n(-c3ccccc3[N+](=O)[O-])c21
2.96 µM: [19]
inactive: [1] 17 µM | [2] 2.13 µM | [3] 8.22 µM | [4] 2.03 µM | [5] 3.3 µM | [6] 2.07 µM | [7] 3.56 µM | [8] 13.3 µM | [9] 8.55 µM | [10] 2.59 µM | [11] 3.65 µM | [13] 6.89 µM | [14] 1.63 µM | [15] 9.82 µM | [16] 3.42 µM | [17] 18.6 µM | [20] 2.76 µM | [21] 5.05 µM | [22] 2.44 µM | [23] 4.91 µM | [24] 22.5 µM | [59] 1.62 µM | [25] 2.17 µM | [26] 2.44 µM | [27] 4.59 µM | [28] 5.2 µM | [29] 2.44 µM | [30] 10.7 µM | [33] 4.68 µM | [34] 1.93 µM | [35] 20.7 µM | [36] 4.01 µM | [37] 1.47 µM | [38] 4.97 µM | [39] 3.04 µM | [40] 1.71 µM | [42] 4.55 µM | [43] 22.6 µM | [44] 2.79 µM | [45] 1.33 µM | [47] 1.98 µM | [48] 1.44 µM | [49] 20.2 µM | [51] 13.9 µM | [52] 21.7 µM | [53] 2.26 µM | [54] 17.3 µM | [55] 8.97 µM | [56] 1.94 µM | [57] 9.84 µM | [58] 2.03 µM
active: [12] 0.444 µM | [18] 0.71 µM | [32] 0.181 µM | [41] 0.543 µM | [46] 1.06 µM | [50] 0.828 µM
